The values that follow come from ChEMBL document CHEMBL3813616, “Discovery of novel 7-azaindoles as PDK1 inhibitors” (Bioorg Med Chem Lett, 2016).

In assay [1] the target is Serine/threonine-protein kinase 26 (Homo sapiens) (UniProt Q9P289). As to the kind of experiment: Inhibition of human MST4 (1 to 416 residues) assessed as enzyme activity at 1 uM using 33P ATP by radioactive filter binding assay. Details: scale not given: the % may be the effect or the level left.
The target of assay [2] is Ribosomal protein S6 kinase beta-1 (Homo sapiens) (UniProt P23443). The assay is described as follows: Inhibition of human S6K1 (1 to 421 residues) assessed as enzyme activity at 1 uM using 33P ATP by radioactive filter binding assay. Details: scale not given: the % may be the effect or the level left.
Chain of Ribosomal protein S6 kinase beta-1 (Homo sapiens) (P23443 whole entry, looked up, the tested form may be a part, canonical isoform): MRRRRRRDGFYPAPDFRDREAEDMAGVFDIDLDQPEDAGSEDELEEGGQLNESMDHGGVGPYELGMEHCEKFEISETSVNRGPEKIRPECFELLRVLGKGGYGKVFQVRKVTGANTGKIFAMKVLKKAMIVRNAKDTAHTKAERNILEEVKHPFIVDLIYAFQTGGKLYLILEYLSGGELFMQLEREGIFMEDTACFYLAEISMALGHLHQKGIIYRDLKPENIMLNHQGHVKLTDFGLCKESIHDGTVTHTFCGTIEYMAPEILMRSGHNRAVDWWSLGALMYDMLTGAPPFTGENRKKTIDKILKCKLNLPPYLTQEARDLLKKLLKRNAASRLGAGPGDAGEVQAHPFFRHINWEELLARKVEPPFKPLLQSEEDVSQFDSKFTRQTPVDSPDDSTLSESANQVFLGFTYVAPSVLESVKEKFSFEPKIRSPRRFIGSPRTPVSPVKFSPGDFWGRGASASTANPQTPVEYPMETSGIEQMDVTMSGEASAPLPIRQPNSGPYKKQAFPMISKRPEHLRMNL
Assay [3] has as its target Phosphatidylinositol 4,5-bisphosphate 3-kinase catalytic subunit alpha isoform (Homo sapiens, UniProt P42336). As to the kind of experiment: Inhibition of PI3K alpha (unknown origin).
Assay [4] concerns the target MAP kinase-activated protein kinase 2 (Homo sapiens) (UniProt P49137). As to the kind of experiment: Inhibition of human MAPKAPK2 (46 to 400 residues) assessed as enzyme activity at 1 uM using 33P ATP by radioactive filter binding assay. Details: scale not given: the % may be the effect or the level left.
Assay [5] has as its target T1, MAP kinase-activated protein kinase 5 (Homo sapiens) (UniProt Q8IW41).
T1 sequence (whole entry): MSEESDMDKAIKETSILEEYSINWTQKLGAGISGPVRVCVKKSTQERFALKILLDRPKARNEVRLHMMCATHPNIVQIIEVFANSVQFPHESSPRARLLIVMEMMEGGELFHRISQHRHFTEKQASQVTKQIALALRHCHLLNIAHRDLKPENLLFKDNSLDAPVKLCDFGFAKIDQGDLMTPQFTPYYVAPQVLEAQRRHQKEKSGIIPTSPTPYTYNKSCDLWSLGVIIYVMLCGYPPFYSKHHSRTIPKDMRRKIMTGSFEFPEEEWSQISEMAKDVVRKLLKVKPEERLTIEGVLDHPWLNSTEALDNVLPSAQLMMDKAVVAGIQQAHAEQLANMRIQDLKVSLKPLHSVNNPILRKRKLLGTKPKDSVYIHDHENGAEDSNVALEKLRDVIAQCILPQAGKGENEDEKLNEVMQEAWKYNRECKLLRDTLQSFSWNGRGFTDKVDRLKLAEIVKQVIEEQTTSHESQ
The assay is described as follows: Inhibition of human PRAK (1 to 471 residues) assessed as enzyme activity at 1 uM using 33P ATP by radioactive filter binding assay. Details: scale not given: the % may be the effect or the level left.

Assay [6] addresses MAP/microtubule affinity-regulating kinase 3 (Homo sapiens) (UniProt P27448). As to the kind of experiment: Inhibition of human MARK3 (2 to 729 residues) assessed as enzyme activity at 1 uM using 33P ATP by radioactive filter binding assay. More on the design: scale not given: the % may be the effect or the level left.
Assay [7] addresses Tyrosine-protein kinase SYK (Homo sapiens) (UniProt P43405). As to the kind of experiment: Inhibition of human SYK (1 to 635 residues) assessed as enzyme activity at 1 uM using 33P ATP by radioactive filter binding assay. Details: scale not given: the % may be the effect or the level left.
In assay [8] the target is Tyrosine-protein kinase Lck (Homo sapiens) (UniProt P06239). The assay is described as follows: Inhibition of human LCK (2 to 509 residues) assessed as enzyme activity at 1 uM using 33P ATP by radioactive filter binding assay. Details: scale not given: the % may be the effect or the level left.
Chain of Tyrosine-protein kinase Lck (Homo sapiens) (P06239 2-509 limits assumed): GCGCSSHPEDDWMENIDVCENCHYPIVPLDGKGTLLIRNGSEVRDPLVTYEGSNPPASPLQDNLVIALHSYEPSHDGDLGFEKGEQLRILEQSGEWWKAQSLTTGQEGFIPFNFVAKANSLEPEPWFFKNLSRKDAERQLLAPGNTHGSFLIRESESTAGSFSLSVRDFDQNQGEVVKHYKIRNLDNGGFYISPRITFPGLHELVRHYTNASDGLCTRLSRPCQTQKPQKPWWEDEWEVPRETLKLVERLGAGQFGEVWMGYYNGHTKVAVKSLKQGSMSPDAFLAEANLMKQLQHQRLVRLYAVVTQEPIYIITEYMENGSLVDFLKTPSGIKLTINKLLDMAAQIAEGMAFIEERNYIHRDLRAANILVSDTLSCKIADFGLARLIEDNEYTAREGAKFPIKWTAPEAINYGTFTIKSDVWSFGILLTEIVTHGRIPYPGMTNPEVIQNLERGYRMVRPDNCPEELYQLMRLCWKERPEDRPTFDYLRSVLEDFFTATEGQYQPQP
Assay [9] addresses T2, Phosphatidylinositol 4,5-bisphosphate 3-kinase catalytic subunit delta isoform (Homo sapiens, UniProt O00329).
T2 sequence (O00329 whole entry): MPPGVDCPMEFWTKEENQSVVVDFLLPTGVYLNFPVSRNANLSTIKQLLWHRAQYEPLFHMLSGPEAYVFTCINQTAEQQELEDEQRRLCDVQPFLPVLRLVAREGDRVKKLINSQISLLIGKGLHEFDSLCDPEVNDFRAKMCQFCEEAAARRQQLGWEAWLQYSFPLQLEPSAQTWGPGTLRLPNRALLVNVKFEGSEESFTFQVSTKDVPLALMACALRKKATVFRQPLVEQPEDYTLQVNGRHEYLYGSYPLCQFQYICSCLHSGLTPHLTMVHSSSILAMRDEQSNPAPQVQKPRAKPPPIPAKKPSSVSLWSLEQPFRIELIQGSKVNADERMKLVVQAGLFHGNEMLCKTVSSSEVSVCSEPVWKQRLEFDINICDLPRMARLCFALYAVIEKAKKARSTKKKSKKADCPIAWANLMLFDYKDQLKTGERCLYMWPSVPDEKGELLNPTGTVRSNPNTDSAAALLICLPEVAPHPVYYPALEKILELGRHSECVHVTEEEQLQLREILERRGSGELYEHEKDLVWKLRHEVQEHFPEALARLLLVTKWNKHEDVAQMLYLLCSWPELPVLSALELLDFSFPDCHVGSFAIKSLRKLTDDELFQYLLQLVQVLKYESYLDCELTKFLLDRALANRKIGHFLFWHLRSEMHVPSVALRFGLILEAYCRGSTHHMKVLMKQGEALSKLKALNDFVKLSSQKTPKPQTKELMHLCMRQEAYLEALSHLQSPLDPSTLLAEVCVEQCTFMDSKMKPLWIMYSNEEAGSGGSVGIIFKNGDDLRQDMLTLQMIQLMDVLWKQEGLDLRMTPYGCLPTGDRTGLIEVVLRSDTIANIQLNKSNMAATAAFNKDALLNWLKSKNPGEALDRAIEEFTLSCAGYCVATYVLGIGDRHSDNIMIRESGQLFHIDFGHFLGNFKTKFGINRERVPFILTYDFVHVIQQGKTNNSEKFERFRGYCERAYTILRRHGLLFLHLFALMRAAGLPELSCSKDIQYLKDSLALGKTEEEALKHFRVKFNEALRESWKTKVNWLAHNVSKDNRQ
As to the kind of experiment: Inhibition of PI3K delta (unknown origin).

Assay [10] deals with AMP-activated protein kinase, AMPK (Homo sapiens) (UniProt P54646+O43741+P54619+Q9UGJ0+Q9Y478+Q13131+Q9UGI9). The assay is described as follows: Inhibition of human AMPK assessed as enzyme activity at 1 uM using 33P ATP by radioactive filter binding assay. The format is protein-complex assay. Details: scale not given: the % may be the effect or the level left.
Assay [11] deals with Tyrosine-protein kinase Yes (Homo sapiens) (UniProt P07947). As to the kind of experiment: Inhibition of human YES1 (1 to 543 residues) assessed as enzyme activity at 1 uM using 33P ATP by radioactive filter binding assay. More on the design: scale not given: the % may be the effect or the level left.
Chain of Tyrosine-protein kinase Yes (Homo sapiens) (P07947 2-543 limits assumed): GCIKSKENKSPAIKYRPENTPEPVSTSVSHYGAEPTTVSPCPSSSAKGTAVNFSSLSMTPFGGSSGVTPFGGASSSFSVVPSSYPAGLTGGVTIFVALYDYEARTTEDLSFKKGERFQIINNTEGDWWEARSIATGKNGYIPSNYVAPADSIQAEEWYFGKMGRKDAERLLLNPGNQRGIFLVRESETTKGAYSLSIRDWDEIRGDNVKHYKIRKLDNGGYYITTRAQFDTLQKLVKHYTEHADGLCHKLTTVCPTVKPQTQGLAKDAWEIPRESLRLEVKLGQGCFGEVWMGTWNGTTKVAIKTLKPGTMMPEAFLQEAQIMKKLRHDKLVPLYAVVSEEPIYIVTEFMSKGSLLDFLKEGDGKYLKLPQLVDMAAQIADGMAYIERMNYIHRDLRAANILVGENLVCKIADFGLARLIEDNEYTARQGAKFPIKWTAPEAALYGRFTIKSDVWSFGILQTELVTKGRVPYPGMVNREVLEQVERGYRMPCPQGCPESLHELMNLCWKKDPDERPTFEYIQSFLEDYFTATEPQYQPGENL
In assay [12] the target is Aurora kinase B (Homo sapiens) (UniProt Q96GD4). As to the kind of experiment: Inhibition of human Aurora B (1 to 344 residues) assessed as enzyme activity at 1 uM using 33P ATP by radioactive filter binding assay. More on the design: scale not given: the % may be the effect or the level left.
Chain of Aurora kinase B (Homo sapiens) (Q96GD4 whole entry, the tested form may be a part): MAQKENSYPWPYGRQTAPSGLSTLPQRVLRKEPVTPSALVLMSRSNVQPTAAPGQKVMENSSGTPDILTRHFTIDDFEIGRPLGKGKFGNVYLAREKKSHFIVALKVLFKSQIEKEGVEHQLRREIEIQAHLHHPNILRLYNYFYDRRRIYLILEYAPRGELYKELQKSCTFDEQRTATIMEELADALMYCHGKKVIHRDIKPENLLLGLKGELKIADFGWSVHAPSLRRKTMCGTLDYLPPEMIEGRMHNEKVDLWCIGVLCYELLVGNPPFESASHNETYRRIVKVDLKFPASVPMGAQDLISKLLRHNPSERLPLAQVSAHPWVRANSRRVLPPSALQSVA
The target in assay [13] is Ribosomal protein S6 kinase alpha-3 (Homo sapiens) (UniProt P51812). The assay is described as follows: Inhibition of human MAPKAPK1beta assessed as enzyme activity at 1 uM using 33P ATP by radioactive filter binding assay. More on the design: scale not given: the % may be the effect or the level left.
Assay [14] addresses Glycogen synthase kinase-3 beta (Homo sapiens) (UniProt P49841). The assay is described as follows: Inhibition of human GSK3beta (2 to 420 residues) assessed as enzyme activity at 1 uM using 33P ATP by radioactive filter binding assay. More on the design: scale not given: the % may be the effect or the level left.
The target of assay [15] is Calcium/calmodulin-dependent protein kinase type 1 (Homo sapiens) (UniProt Q14012). As to the kind of experiment: Inhibition of human CAMK1 (2 to 369 residues) assessed as enzyme activity at 1 uM using 33P ATP by radioactive filter binding assay. Details: scale not given: the % may be the effect or the level left.
Chain of Calcium/calmodulin-dependent protein kinase type 1 (Homo sapiens) (Q14012 whole entry, looked up, the tested form may be a part): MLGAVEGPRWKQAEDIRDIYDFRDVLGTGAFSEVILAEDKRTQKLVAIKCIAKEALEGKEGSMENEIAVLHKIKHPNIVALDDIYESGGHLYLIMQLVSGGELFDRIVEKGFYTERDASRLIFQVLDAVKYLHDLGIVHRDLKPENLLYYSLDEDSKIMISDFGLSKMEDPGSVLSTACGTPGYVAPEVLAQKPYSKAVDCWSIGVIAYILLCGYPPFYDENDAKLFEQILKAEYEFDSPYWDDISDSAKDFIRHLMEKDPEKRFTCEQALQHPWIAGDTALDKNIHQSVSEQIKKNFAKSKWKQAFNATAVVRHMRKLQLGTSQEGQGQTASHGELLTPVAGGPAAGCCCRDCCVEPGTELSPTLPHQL
Assay [16] deals with Homeodomain-interacting protein kinase 2 (Homo sapiens) (UniProt Q9H2X6). The assay is described as follows: Inhibition of human HIPK2 (165 to 564 residues) assessed as enzyme activity at 1 uM using 33P ATP by radioactive filter binding assay. Details: scale not given: the % may be the effect or the level left.

Molecules are shown by their SMILES. Where only a bound is given, the exact number is not on record here.

Chain of Serine/threonine-protein kinase 26 (Homo sapiens) (Q9P289 2-416 limits assumed): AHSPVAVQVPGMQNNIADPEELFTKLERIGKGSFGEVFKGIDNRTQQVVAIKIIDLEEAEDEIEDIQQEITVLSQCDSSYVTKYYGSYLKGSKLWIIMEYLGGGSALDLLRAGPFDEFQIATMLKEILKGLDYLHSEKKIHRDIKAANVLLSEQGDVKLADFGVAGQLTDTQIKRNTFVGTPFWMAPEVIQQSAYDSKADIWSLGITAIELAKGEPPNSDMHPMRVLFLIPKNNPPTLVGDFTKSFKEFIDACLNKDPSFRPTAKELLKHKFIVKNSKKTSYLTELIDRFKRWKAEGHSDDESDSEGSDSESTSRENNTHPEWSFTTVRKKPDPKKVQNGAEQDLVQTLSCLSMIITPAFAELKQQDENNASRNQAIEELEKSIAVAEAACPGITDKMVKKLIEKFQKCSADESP
Chain of Glycogen synthase kinase-3 beta (Homo sapiens) (P49841 whole entry, looked up, the tested form may be a part): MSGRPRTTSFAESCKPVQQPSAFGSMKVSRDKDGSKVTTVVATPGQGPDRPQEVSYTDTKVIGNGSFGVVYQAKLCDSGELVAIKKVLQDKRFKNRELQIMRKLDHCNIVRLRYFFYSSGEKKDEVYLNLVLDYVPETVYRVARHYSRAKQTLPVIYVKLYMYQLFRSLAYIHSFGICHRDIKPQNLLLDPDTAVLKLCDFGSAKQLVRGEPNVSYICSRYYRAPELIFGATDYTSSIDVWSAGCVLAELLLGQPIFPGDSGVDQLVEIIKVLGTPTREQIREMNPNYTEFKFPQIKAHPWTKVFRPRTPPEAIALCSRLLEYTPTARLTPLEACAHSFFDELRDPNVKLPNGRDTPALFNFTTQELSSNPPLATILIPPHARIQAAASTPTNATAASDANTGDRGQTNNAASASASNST
Chain of MAP/microtubule affinity-regulating kinase 3 (Homo sapiens) (P27448 whole entry, looked up, the tested form may be a part): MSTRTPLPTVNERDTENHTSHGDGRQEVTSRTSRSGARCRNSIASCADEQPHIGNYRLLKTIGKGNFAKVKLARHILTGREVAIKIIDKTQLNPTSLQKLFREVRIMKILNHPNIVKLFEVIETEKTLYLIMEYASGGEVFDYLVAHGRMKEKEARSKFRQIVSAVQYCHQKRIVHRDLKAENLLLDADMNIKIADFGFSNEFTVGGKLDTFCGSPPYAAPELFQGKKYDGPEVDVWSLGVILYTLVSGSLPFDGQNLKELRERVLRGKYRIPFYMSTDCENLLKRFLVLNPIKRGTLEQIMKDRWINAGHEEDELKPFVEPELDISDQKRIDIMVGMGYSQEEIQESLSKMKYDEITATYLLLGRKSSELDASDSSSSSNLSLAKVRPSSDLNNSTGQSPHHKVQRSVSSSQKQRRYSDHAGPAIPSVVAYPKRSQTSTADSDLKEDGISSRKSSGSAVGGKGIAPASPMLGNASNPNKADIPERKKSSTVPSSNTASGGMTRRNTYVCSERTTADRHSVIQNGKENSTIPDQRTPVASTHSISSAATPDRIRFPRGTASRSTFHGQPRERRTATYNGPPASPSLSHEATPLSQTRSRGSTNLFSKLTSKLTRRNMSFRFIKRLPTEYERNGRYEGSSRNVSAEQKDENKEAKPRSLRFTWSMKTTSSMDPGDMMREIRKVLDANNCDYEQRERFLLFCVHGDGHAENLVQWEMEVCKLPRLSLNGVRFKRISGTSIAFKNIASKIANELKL
Chain of Phosphatidylinositol 4,5-bisphosphate 3-kinase catalytic subunit alpha isoform (P42336 whole entry, the tested form may be a part, canonical isoform): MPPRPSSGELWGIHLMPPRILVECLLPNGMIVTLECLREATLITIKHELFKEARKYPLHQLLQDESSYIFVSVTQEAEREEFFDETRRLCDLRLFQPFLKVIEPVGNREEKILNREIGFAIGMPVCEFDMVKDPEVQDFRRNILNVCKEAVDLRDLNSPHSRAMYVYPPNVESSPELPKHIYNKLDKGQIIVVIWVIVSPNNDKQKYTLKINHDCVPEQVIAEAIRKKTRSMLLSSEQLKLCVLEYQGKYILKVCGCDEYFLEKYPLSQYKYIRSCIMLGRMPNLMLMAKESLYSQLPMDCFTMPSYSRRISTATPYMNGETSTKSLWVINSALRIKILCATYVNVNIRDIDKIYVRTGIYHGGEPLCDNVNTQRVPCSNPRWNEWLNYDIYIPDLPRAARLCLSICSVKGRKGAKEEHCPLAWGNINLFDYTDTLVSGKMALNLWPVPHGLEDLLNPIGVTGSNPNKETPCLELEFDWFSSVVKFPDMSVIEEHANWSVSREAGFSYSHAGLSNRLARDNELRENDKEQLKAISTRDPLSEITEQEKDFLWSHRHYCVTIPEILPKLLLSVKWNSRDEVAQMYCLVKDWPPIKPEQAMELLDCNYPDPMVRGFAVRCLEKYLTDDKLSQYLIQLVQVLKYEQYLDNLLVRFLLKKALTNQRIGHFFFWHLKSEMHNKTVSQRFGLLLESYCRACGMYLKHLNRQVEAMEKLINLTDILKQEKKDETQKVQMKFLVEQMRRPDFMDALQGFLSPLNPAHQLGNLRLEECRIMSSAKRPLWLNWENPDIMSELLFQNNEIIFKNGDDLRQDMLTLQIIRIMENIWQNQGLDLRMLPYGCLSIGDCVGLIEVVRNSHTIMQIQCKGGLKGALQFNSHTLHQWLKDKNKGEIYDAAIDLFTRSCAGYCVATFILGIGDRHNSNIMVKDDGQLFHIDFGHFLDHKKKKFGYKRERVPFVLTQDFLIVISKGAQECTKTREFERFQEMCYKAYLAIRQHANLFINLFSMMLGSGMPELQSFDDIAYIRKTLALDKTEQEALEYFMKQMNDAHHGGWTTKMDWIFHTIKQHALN

Consider `CCCCc1cc(-c2c[nH]c3ncc(-c4cnn(C5CCNCC5)c4)cc23)nc(N)n1`, for which the Activity was -40% in assay [1]; -84% in assay [2]; -23% in assay [4]; -10% in assay [5]; -95% in [6]; -69% in assay [7]. For the same molecule, the Activity was -99% in assay [8]; -69% in assay [10]; -78% in [11]; -62% in [12]; -92% in assay [13]; -94% in [14]. The Activity in assay [15] is -60%; in assay [16], -92%. Moreover, the IC50 – broadly, the midpoint of a concentration-inhibition curve – in assay [3] was 5.5 µM; in assay [9], 4 µM.

As for `CCCCc1cc(-c2c[nH]c3ncccc23)nc(N)n1`, the Activity in assay [1] was -4%; in [2], -77%; in [4] it was 13%; in [5], 2%; in [6], -58%; in assay [7] it was -9%. For the same molecule, the Activity is -5% in assay [8]; -6% in [10]; -21% in [11]; -16% in assay [12]; -17% in [13]; -86% in assay [14]. For the same molecule, the results for the Activity in [15] and in [16] were -3% and -67%, respectively. Also, the IC50 in assay [3] and in assay [9] was above 10 µM throughout.

As for `CCc1cc(-c2c[nH]c3ncc(-c4cnn(C5CCNCC5)c4)cc23)nc(N)n1`, the Activity in assay [1] was -49%; in [2], -66%; in assay [4], -3%; in assay [5] it was 4%; in assay [6] it was -89%; in [8], -95%. Further, the Activity in assay [10] was -54%; in assay [11], -46%; in assay [13] it was -71%; in [14], -94%; in assay [15], -49%; in assay [16] it was -99%.

Turning to `Nc1nccc(-c2c[nH]c3ncccc23)n1` [MERIOLIN 1], the Activity in [1] was -9%; in [2] it was -71%; in [4], -8%; in [5] it was -17%; in [6] it was -59%; in [7], 12%. Besides, the Activity in assay [8] was -9%; in assay [10], -11%; in assay [11], 2%; in assay [12], -31%; in assay [13], -46%; in assay [14], -77%. The Activity was -6% in [15] and -79% in assay [16]. In addition, the IC50 in assay [3] and in assay [9] was above 10 µM throughout.
